This note sets out measurements from patent US20240327414A1, “CYCLOPROPYL-(HETERO)ARYL-SUBSTITUTED ETHYL- SULFONE / SULFOXIMINE-PYRIDINE N-OXIDE DERIVATIVES” (Boehringer Ingelheim Vetmedica GmbH, priority 2023, published 2024).

In experiment [1] the test system is adult Ctenocephalides felis fleas. The experiment in a line: Contact activity against adult Ctenocephalides felis. As to conditions: adult C. felis, mortality at 72 hours post-treatment. The protocol: Example 4: Screening Method to Test Contact Activity of N-Oxide Compounds of Formula (I), (Ia) or (Ib) Against Adult Ctenocephalides felis
N-oxide compounds of formula (I), (Ia) and (Ib) dissolved in 100% DMSO are diluted in acetone to a desired concentration. The resulting formulation is used to coat the fibers of a 0.5-inch-long piece of pipe cleaner placed in a glass scintillation vial. The vial is capped with a rubber gasket and filter paper insert. After the acetone has evaporated, ten adult Ctenocephalides felis fleas are added to each vial. The vials are then incubated at 22° C., 80% relative humidity, and 12 hours of light/12 hours of dark until a visual evaluation for mortality is performed at 72 hours post-treatment. Compound efficacy at a given dose is expressed as percentage mortality and adjusted to remove background mortality observed in control vials containing DMSO only. A dose response series of treated vials is implemented to determine EC50 values.

Experiment [2] concerns adult C. felis fleas. The experiment in a line: Ingestion activity against adult Ctenocephalides felis (membrane feeding, motility). As to conditions: 48 h, ingestion in bovine blood, % motility reduction 48h post treatment. The protocol:
Example 6: Screening Method to Test Ingestion Activity of N-Oxide Compounds of Formula (I), (Ia) or (Ib) Against Adult Ctenocephalides felis
N-oxide compounds of formula (I), (Ia) and (Ib) dissolved in 100% DMSO are added to bovine blood and offered via an artificial membrane feeding system to adult C. felis fleas. The motility of fleas is then visually inspected 48h post treatment. Efficacy is expressed in % motility reduction compared to controls containing blood treated with DMSO only. A dose response series is implemented to determine EC50 values.

Experiment [3] relates to adult C. felis fleas. Description: Ingestion activity against adult Ctenocephalides felis (alternative method, membrane feeding, mortality). As to conditions: bovine blood, mortality at 48 hours post-treatment. As for the experimental part:
Selected N-oxide compounds of formula (I), (Ia) and (Ib) and compound “P23” of WO 2016/030229 dissolved in 100% DMSO are diluted in bovine blood with sodium heparin anti-coagulant. The resulting formulation is offered via an artificial membrane feeding system to approximately 15 adult C. felis fleas previously dispensed into 24-well plates. The plates are then incubated in a double-chambered device. Visual evaluation for mortality is performed at 48 hours post-treatment. Compound efficacy at a given dose is expressed as percentage mortality and determined by normalization to positive and negative controls. A dose response series is implemented to determine EC50 values.
Example 7: Screening Method to Test Ingestion Activity of N-Oxide Compounds of Formula (I), (Ia) or (Ib) Against Adult Ctenocephalides felis (Alternative Method)
N-oxide compounds of formula (I), (Ia) and (Ib) dissolved in 100% DMSO are diluted in bovine blood with sodium heparin anti-coagulant. The resulting formulation is offered via an artificial membrane feeding system to approximately 15 adult C. felis fleas previously dispensed into 24-well plates. The plates are then incubated in a double-chambered device. Visual evaluation for mortality is performed at 48 hours post-treatment. Compound efficacy at a given dose is expressed as percentage mortality and determined by normalization to positive and negative controls. A dose response series is implemented to determine EC50 values.
The structurally closest prior art compound “P23” of WO 2016/030229 is characterized vis-à-vis selected N-oxide compounds of formula (I), (Ia) and (Ib) with regard to their potency in in vitro screening assay to test ingestion activity against adult fleas (Ctenocephalides felis) (alternative method according to Example 7).

The subject of the next experiment is Plutella xylostella. Description: Insecticidal test on Plutella xylostella. In kind it is in vivo. As to conditions: 144 h, Chinese cabbage seedling dip, 6 days after the dip treatment, read-out: activity level (corrected mortality rate). The protocol:
Example 15: Insecticidal Test on Plutella xylostella
The N-oxide compounds of formula (I), (Ia) and (Ib) of the present invention or salts thereof are separately dispersed in water and diluted to 500 ppm. Ten adults of Plutella xylostella are released onto Chinese cabbage seedlings and allowed to lay eggs thereon. 2 days after the release of the adults, the seedling is dipped in the dispersion for about 30 seconds. After air dried, the seedling is kept in a room at 25° C. 6 days after the dip treatment, the numbers of the dead and alive insects are counted. The corrected mortality rate is calculated according to the following formula and the insecticidal activity is evaluated according to the following criteria.
(§1) [formula] [formula] • A: the corrected mortality rate is 100% • B: the corrected mortality rate is 90 to 99% • C: the corrected mortality rate is 80 to 89% • D: the corrected mortality rate is 50 to 79%

The subject of a further experiment is Laodelphax striatellus. Description: Insecticidal test on Laodelphax striatellus. Type of experiment: in vivo. As to conditions: 192 h, rice seedling dip, 3rd-instar nymphs, 8 days after inoculation, read-out: activity level (corrected mortality rate). The protocol:
Example 16: Insecticidal Test on Laodelphax striatellus
The N-oxide compounds of formula (I), (Ia) and (Ib) of the present invention or salts thereof are separately dispersed in water and diluted to 500 ppm. Rice plant seedlings are dipped in the dispersion for about 30 seconds. After air dried, the seedlings are put into a separate glass test tube and inoculated with ten 3rd-instar nymphs of Laodelphax striatellus and then the glass test tube is kept in a room at 25° C. 8 days after the inoculation, the numbers of the dead and alive insects are counted. The corrected mortality rate is calculated according to the following formula and the insecticidal activity is evaluated according to the following criteria.
as §1

The test system of a further experiment is Spodoptera litura. Description: Insecticidal test on Spodoptera litura. As to conditions: foliar, 192 h, cabbage leaf dip, 2nd-instar larvae, 8 days after inoculation, read-out: activity level (corrected mortality rate). Type of experiment: in vivo. The protocol: Example 14: Insecticidal Test on Spodoptera litura
The N-oxide compounds of formula (I), (Ia) and (Ib) of the present invention or salts thereof are separately dispersed in water and diluted to 500 ppm. Cabbage leaves are dipped in the dispersion for about 30 seconds. After air dried, the leaves are placed in a plastic Petri dish with a diameter of 9 cm and inoculated with ten 2nd-instar larvae of Spodoptera litura, after which the dish is closed and then allowed to stand in a room at 25° C. 8 days after the inoculation, the numbers of the dead and alive insects are counted. The corrected mortality rate is calculated according to the following formula and the insecticidal activity is evaluated according to the following criteria.
as §1

For another experiment, the system named is A. aegypti L1 larvae. The experiment in a line: Screening against larvae of Aedes aegypti. As to conditions: 48 h at 27° C., percentage of mortality. The protocol: Example 3: Screening Method to Test Activity of N-Oxide Compounds of Formula (I), (Ia) or (Ib) Against Larvae of Aedes aegypti
Eight A. aegypti L1 larvae in a total volume of 64 μL water are added to 384-well microplates containing N-oxide compounds of formula (I), (Ia) and (Ib) formulated in 100% DMSO. The plates are incubated for 48 h at 27° C. Individual well images are acquired and analyzed using a pipeline to quantitatively assess the amount of larvae biomass accumulating at the bottom of the well. The efficacy of a compound at a given dose is expressed as “percentage of mortality” and determined by comparison to average biomass descriptors of positive and negative control wells containing 1.0 μM Fipronil or DMSO only, respectively. Dose response assay are conducted to determine an EC50 value.

Experiment [4] concerns adult R. sanguineus ticks. The experiment in a line: Contact activity against adult Rhipicephalus sanguineus. As to conditions: mortality at 48 hours post-treatment. As for the experimental part:
Example 5: Screening Method to Test Contact Activity of N-Oxide Compounds of Formula (I), (Ia) or (Ib) Against Adult Rhipicephalus sanguineus
N-oxide compounds of formula (I), (Ia) and (Ib) formulated in 100% DMSO are diluted in a solution containing acetone and Triton X-100 (0.02%). The resulting formulation is used to coat the inner walls of glass scintillation vials and the filter paper covering the cap of the vial. Once dried, ten adult R. sanguineus ticks are added to the vials. The vials are incubated at 24° C., 95% relative humidity, and 12 hours of light/12 hours of dark until evaluation. Ticks are visually evaluated for mortality at 48 hours post-treatment. Compound efficacy at a given dose is expressed as percentage mortality. A dose response series was implemented to determine EC50 values.

SMILES strings stand for the structures.

For `CCS(=O)(=O)c1cc(-c2noc(C3CC3)n2)cnc1-c1nc2cc(C(F)(F)C(F)(F)F)n[n+]([O-])c2n1C` [Compound 1, 6-[5-(5-cyclopropyl-1,2,4-oxadiazol-3-yl)-3-(ethanesulfonyl)pyridin-2-yl]-7-methyl-3-(1,1,2,2,2-pentafluoroethyl)-7H-imidazo[4,5-c]pyridazin-1-ium-1-olate], the concentration giving a half-maximal response (EC50) (usually the midpoint of the concentration-response curve) in experiment [1] is 10 to 100 µM; with adult C. felis fleas [2] it was less than 10 µM; in the experiment with adult C. felis fleas [3], 0.783 µM. Moreover, the mortality at 500 ppm in the experiment with Plutella xylostella and in the experiment on Laodelphax striatellus was 100% each time.

As to `CCS(=O)(=O)c1cc(-c2noc(C3(C(F)(F)F)CC3)n2)cnc1-c1nc2cc(C(C)(F)F)n[n+]([O-])c2n1C` [Compound 8], the concentration giving a half-maximal response (EC50) in experiment [1] is 10 to 100 µM; in the experiment on adult C. felis fleas [2] it was less than 10 µM; in the experiment with adult C. felis fleas [3] it was 0.141 µM. Besides, the mortality at 500 ppm in the experiment with Spodoptera litura, with Plutella xylostella and in the experiment with Laodelphax striatellus was 100% each time.

As to `CCS(=O)(=O)c1cc(-c2ccc(C3(F)CC3)cc2)c[n+]([O-])c1-c1nc2cc(C(F)(F)C(F)(F)F)n[n+]([O-])c2n1C` [Compound 45], the EC50 in the experiment with A. aegypti L1 larvae was less than 0.04 µM; in the experiment with adult C. felis fleas [2], less than 10 µM.

Regarding `CCS(=O)(=O)c1cc(-c2ccc(C3(F)CC3)cc2)cnc1-c1nc2cc(C(F)(F)C(F)(F)F)n[n+]([O-])c2n1C` [Compound 36], the EC50 in the experiment on A. aegypti L1 larvae is less than 0.04 µM; in experiment [4], 10 to 100 µM; in the experiment with adult C. felis fleas [2] it was 10 to 100 µM; in the experiment with adult C. felis fleas [3] it was 1.06 µM. Moreover, the mortality at 500 ppm in the experiment on Plutella xylostella and in the experiment with Laodelphax striatellus was 100% throughout.

In the experiment on adult C. felis fleas [2], `CCS(=O)(=O)c1cc(-c2noc(C3CC3)n2)c[n+]([O-])c1-c1nc2cc(C(F)(F)C(F)(F)F)nnc2n1C` [Compound 3, 5-(5-cyclopropyl-1,2,4-oxadiazol-3-yl)-3-(ethanesulfonyl)-2-[7-methyl-3-(1,1,2,2,2-pentafluoroethyl)-7H-imidazo[4,5-c]pyridazin-6-yl]pyridin-1-ium-1-olate] showed an EC50 of less than 10 µM.

In turn, `CCS(=O)(=O)c1cc(-c2noc(C3(C(F)(F)F)CC3)n2)cnc1-c1n(C)c2ncc(C(C)(F)F)cc2[n+]1[O-]` [Compound 7] showed a concentration for a half-maximal effect (EC50) in the experiment on adult C. felis fleas [3] of 0.41 µM.

Compound `CCS(=O)(=O)c1cc(-c2ccc(C3(C#N)CC3)cc2)c[n+]([O-])c1-c1nc2cc(C(F)(F)F)cn(CC(F)F)c-2c1F` [Compound 44, 5-[4-(1-cyanocyclopropyl)phenyl]-2-[4-(2,2-difluoroethyl)-3-fluoro-6-(trifluoromethyl)-4H-pyrrolo[3,2-b]pyridin-2-yl]-3-(ethanesulfonyl)pyridin-1-ium-1-olate] yielded an EC50 in experiment [1] of 10 to 100 µM.

For `CCS(=O)(=O)c1cc(-c2noc(C3CC3)n2)cnc1-c1nc2cc(C(F)(F)C(F)(F)F)c[n+]([O-])c2n1C` [Compound 33], the 50% effective concentration (EC50) in experiment [1] was less than 10 µM; in experiment [4] it was 10 to 100 µM; with adult C. felis fleas [2], less than 10 µM; with adult C. felis fleas [3], 0.889 µM. The mortality at 500 ppm with Plutella xylostella and with Laodelphax striatellus was 100% in each case.

On to `CCS(=O)(=O)c1cc(-c2noc(C3CC3)n2)cnc1-c1nc2cc(C(C)(F)F)[n+]([O-])nc2n1C` [Compound 40], for which, in the experiment with adult C. felis fleas [3], the EC50 is 0.807 µM.

For `CCS(=O)(=O)c1cc(-c2cc(C3CC3)ccn2)cnc1-c1nc2cc(C(F)(F)C(F)(F)F)c[n+]([O-])c2n1C` [Compound 29], the figures for the EC50 in the experiment with A. aegypti L1 larvae and in the experiment with adult C. felis fleas [2] were 0.04 to 0.05 µM and 10 to 100 µM, respectively.

Consider `CCS(=O)(=O)c1cc(-c2noc(C3CC3)n2)cnc1-c1nc2cc(C(F)(F)C(F)(F)F)[n+]([O-])nc2n1C` [Compound 2, 6-[5-(5-cyclopropyl-1,2,4-oxadiazol-3-yl)-3-(ethanesulfonyl)pyridin-2-yl]-7-methyl-3-(1,1,2,2,2-pentafluoroethyl)-7H-imidazo[4,5-c]pyridazin-2-ium-2-olate], for which the values for the EC50 (in experiment [1]; with adult C. felis fleas [2]) were 10 to 100 µM and less than 10 µM, respectively.

Consider `CCS(=O)(=O)c1cc(-c2ccc(C3CC3)cc2)c[n+]([O-])c1-c1nc2cc(C(F)(F)C(F)(F)F)cnc2n1C` [Compound 23], for which the EC50 in the experiment on adult C. felis fleas [2] fell in the range of 10 to 100 µM.

Consider `CCS(=O)(=O)c1cc(-c2ccc(C3(F)CC3)cc2)c[n+]([O-])c1-c1nc2cc(C(F)(F)C(F)(F)F)nnc2n1C` [Compound 27], for which the figures for the EC50 in the experiment with A. aegypti L1 larvae, in the experiment with adult C. felis fleas [2] and in the experiment with adult C. felis fleas [3] were less than 0.04 µM, less than 10 µM and 0.46 µM, respectively. The mortality at 500 ppm with Plutella xylostella and in the experiment on Laodelphax striatellus was 100% each time.

With `CCS(=O)(=O)c1cc(-c2noc(C3CC3)n2)c[n+]([O-])c1-c1nc2cc(C(F)(F)C(F)(F)F)n[n+]([O-])c2n1C` [Compound 4, 5-(5-cyclopropyl-1,2,4-oxadiazol-3-yl)-3-(ethanesulfonyl)-2-[7-methyl-1-oxido-3-(1,1,2,2,2-pentafluoroethyl)-7H-imidazo[4,5-c]pyridazin-1-ium-6-yl]pyridin-1-ium-1-olate], in the experiment on adult C. felis fleas [2], the EC50 lay in the range of 10 to 100 µM.

On to `CCS(=O)(=O)c1cc(-c2noc(C3CC3)n2)cnc1-c1nc2cc(C(C)(F)F)n[n+]([O-])c2n1C` [Compound 39], for which the response in the experiment on adult C. felis fleas [3] was half-maximal at 0.454 µM (EC50). Further, the mortality at 500 ppm in the experiment with Plutella xylostella and with Laodelphax striatellus was 100% throughout.
